Experimental data from US9174931B2, “Compositions for the treatment of diabetes and pre-diabetes” (CELLIX BIO PRIVATE LIMITED, priority 2013, dated 2015).
≈ marks a conversion by molar mass, not a printed value.

Test: Water solubility of test compounds compared with EPA
Type: physicochemical
Settings: thermodynamic from solid; distilled water added in small portions until clear solution
Experimental: Measurement of the water solubility of the test compound was accomplished by using methods well known to those skilled in the art. Specifically, to a weighed amount of the test compounds of Example-1, Example-2, Example-3 and EPA were taken in separate vials; distilled water was added in small portions until a clear solution was obtained. The water solubility is calculated by dividing the weight of salt, in mg, by the volume of the solution, in mL. The water solubility of the compounds of example-1, example-2, example-3 compared to EPA alone were as follows: […]

`CC/C=C\C/C=C\C/C=C\C/C=C\C/C=C\CCCC(=O)O` [EPA, Eicosapentaenoic Acid, reference compound] gave a solubility of under 0.3 mg/mL.

For `CC/C=C\C/C=C\C/C=C\C/C=C\C/C=C\CCCC(=O)OCC(C)(C)[C@@H](OC(=O)c1ccccc1OC(=O)c1ccccc1OC(C)=O)C(=O)NCCC(=O)O` [Example-3, amino(3,3-dimethylguanidino)methaniminium3-((R)-2-((2-((2-acetoxybenzoyl)oxy)benzoyl)oxy)-4-((5Z,8Z,11Z,14Z,17Z)-icosa-5,8,11,14,17-pentaenoyloxy)-3,3-dimethylbutanamido)propanoate], the solubility was 98 mg/mL (≈ 125 mM).

In the case of `CC/C=C\C/C=C\C/C=C\C/C=C\C/C=C\CCCC(=O)OCC(C)(C)[C@@H](OC(=O)c1cccnc1)C(=O)NCCC(=O)O` [Example-2, amino(3,3-dimethylguanidino)methaniminium 3-((R)-4-((5Z,8Z,11Z,14Z,17Z)-icosa-5,8,11,14,17-pentaenoyloxy)-3,3-dimethyl-2-(nicotinoyloxy)butanamido)propanoate], the solubility is reported as 103 mg/mL (≈ 169 mM).

For `CC/C=C\C/C=C\C/C=C\C/C=C\C/C=C\CCCC(=O)OCC(C)(C)[C@@H](O)C(=O)NCCC(=O)O` [Example-1, amino(3,3-dimethylguanidino)methaniminium 3-((R)-2-hydroxy-4-((5Z,8Z,11Z,14Z,17Z)-icosa-5,8,11,14,17-pentaenoyloxy)-3,3-dimethylbutanamido) propanoate], the solubility was 60 mg/mL (≈ 119 mM).
